Laboratory results taken from patent US20150133426A1, “SUBSTITUTED PYRROLOPYRIMIDINES” (BAYER PHARMA AKTIENGESELLSCHAFT, priority 2012, published 2015).
pIC50: −log10 of the molar value.

biological target: T1, human full-length MKNK1 (Homo sapiens, UniProt Q9BUB5, T385D); experiment: MKNK1 kinase high ATP assay (TR-FRET); type: biochemical; conditions: high ATP (2 mM), 15 min preincubation with enzyme, GST-MKNK1 (T344D)
T1 construct: purchased Carna Biosciences 02-145; host or cells: insect cells, baculovirus expression system
T1 sequence (Q9BUB5 1-424 isoform Q9BUB5-2 T344D): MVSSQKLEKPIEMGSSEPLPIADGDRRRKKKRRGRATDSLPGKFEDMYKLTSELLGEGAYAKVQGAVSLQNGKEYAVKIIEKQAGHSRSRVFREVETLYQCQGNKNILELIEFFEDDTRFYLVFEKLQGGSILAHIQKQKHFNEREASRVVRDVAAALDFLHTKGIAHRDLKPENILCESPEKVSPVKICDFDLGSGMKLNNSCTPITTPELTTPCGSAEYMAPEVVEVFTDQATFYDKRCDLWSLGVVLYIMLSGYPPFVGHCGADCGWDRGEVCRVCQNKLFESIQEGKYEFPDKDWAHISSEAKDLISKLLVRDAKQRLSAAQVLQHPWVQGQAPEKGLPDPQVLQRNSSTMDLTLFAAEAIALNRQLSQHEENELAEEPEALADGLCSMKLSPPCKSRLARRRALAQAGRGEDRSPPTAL
Summary of the method: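 GST-tagged full-length human MKNK1 (aa 1-424, T344D), baculovirus-expressed, preincubated 15 min with compound, then reacted 30 min at 22 °C with 2 mM ATP and 0.06 µM biotinylated peptide (final).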

Row | pIC50 | Compound
1 | 6.44 | c1ccc(CN2CCc3[nH]c4ncnc(Nc5ccc6[nH]ncc6c5)c4c3C2)cc1 [Example 24, 6-Benzyl-N-(1H-indazol-5-yl)-6,7,8,9-tetrahydro-5H-pyrido[3′,4′:4,5]pyrrolo[2,3-d]pyrimidin-4-amine]
2 | 8.00 | COc1ccc(Cl)cc1Nc1ncnc2[nH]c3c(c12)CC(C(=O)NCCCS(C)(=O)=O)CC3 (racemic) [Example 149, (RS)-4-[(5-Chloro-2-methoxyphenyl)amino]-N-[3-(methylsulfonyl)propyl]-6,7,8,9-tetrahydro-5H-pyrimido[4,5-b]indole-6-carboxamide]
3 | 5.38 | COc1ccc(Nc2ncnc3[nH]c4c(c23)CC(C(=O)NCCCS(C)(=O)=O)CC4)c(OC)c1 (racemic) [Example 73, (RS)-4-[(2,4-Dimethoxyphenyl)amino]-N-[3-(methylsulfonyl)propyl]-6,7,8,9-tetrahydro-5H-pyrimido[4,5-b]indole-6-carboxamide]
4 | 7.37 | CC(C)Oc1cc(F)ccc1Nc1ncnc2[nH]c3c(c12)CCCC3 [Example 1, N-(4-Fluoro-2-isopropoxyphenyl)-6,7,8,9-tetrahydro-5H-pyrimido[4,5-b]indol-4-amine]
5 | 6.71 | CC(C)COc1ccccc1Nc1ncnc2[nH]c3c(c12)CC(C(=O)NCCCS(C)(=O)=O)CC3 (racemic) [Example 153, (RS)-4-{[2-(2-Methylpropoxy)phenyl]amino}-N-[3-(methylsulfonyl)propyl]-6,7,8,9-tetrahydro-5H-pyrimido[4,5-b]indole-6-carboxamide]
6 | 5.90 | CS(=O)(=O)CCCNC(=O)C1CCc2[nH]c3ncnc(Nc4cccc5c4CNC5=O)c3c2C1 (racemic) [Example 81, (RS)—N-[3-(Methylsulfonyl)propyl]-4-[(1-oxo-2,3-dihydro-1H-isoindol-4-yl)amino]-6,7,8,9-tetrahydro-5H-pyrimido[4,5-b]indole-6-carboxamide]
7 | 7.62 | CC(C)NC(=O)C1CCc2[nH]c3ncnc(Nc4ccc5[nH]ncc5c4)c3c2C1 (racemic) [Example 227, (RS)-4-(1H-Indazol-5-ylamino)-N-(propan-2-yl)-6,7,8,9-tetrahydro-5H-pyrimido[4,5-b]indole-6-carboxamide]
8 | 5.51 | Cc1ccc(Nc2ncnc3[nH]c4c(c23)CC(C(=O)NCCCS(C)(=O)=O)CC4)c(O)c1 (racemic) [Example 54, (RS)-4-[(2-Hydroxy-4-methylphenyl)amino]-N-[3-(methylsulfonyl)propyl]-6,7,8,9-tetrahydro-5H-pyrimido[4,5-b]indole-6-carboxamide]
9 | 6.40 | Cc1cc(=O)oc2cc(Nc3ncnc4[nH]c5c(c34)CC(C(=O)NCCCS(C)(=O)=O)CC5)ccc12 (racemic) [Example 33, (RS)-4-[(4-Methyl-2-oxo-2H-chromen-7-yl)amino]-N-[3-(methylsulfonyl)propyl]-6,7,8,9-tetrahydro-5H-pyrimido[4,5-b]indole-6-carboxamide]
10 | 6.50 | COc1ccc(Br)cc1Nc1ncnc2[nH]c3c(c12)CCCC3 [Example 128]
11 | 6.30 | CS(=O)(=O)CCCNC(=O)C1CCc2[nH]c3ncnc(Nc4ccc5[nH]c(=S)sc5c4)c3c2C1 (racemic) [Example 155, (RS)—N-[3-(Methylsulfonyl)propyl]-4-[(2-thioxo-2,3-dihydro-1,3-benzothiazol-6-yl)amino]-6,7,8,9-tetrahydro-5H-pyrimido[4,5-b]indole-6-carboxamide]
12 | 6.65 | CS(=O)(=O)CCCNC(=O)C1CCc2[nH]c3ncnc(Oc4ccc5[nH]ncc5c4)c3c2C1 (racemic) [Example 56, (RS)-4-(1H-Indazol-5-yloxy)-N-[3-(methylsulfonyl)propyl]-6,7,8,9-tetrahydro-5H-pyrimido[4,5-b]indole-6-carboxamide]
13 | 5.54 | O=C(Nc1ccccc1)C1CCc2[nH]c3ncnc(Nc4ccccc4OC4CCCC4)c3c2C1 (racemic) [Example 193, (RS)-4-{[2-(Cyclopentyloxy)phenyl]amino}-N-phenyl-6,7,8,9-tetrahydro-5H-pyrimido[4,5-b]indole-6-carboxamide]
14 | 6.99 | COc1ccc(C(F)(F)F)cc1Nc1ncnc2[nH]c3c(c12)CC(C(=O)NC(C)C)CC3 (racemic) [Example 213, (RS)-4-{[2-Methoxy-5-(trifluoromethyl)phenyl]amino}-N-(propan-2-yl)-6,7,8,9-tetrahydro-5H-pyrimido[4,5-b]indole-6-carboxamide]
15 | 6.62 | O=C(Nc1ccccc1)C1CCc2[nH]c3ncnc(Nc4ccccc4N4CCOCC4)c3c2C1 (racemic) [Example 205, (RS)-4-{[2-(Morpholin-4-yl)phenyl]amino}-N-phenyl-6,7,8,9-tetrahydro-5H-pyrimido[4,5-b]indole-6-carboxamide]
16 | 6.29 | CS(=O)(=O)CCCNC(=O)C1CCc2[nH]c3ncnc(Nc4cccc(-c5cnco5)c4)c3c2C1 (racemic) [Example 55, (RS)—N-[3-(Methylsulfonyl)propyl]-4-{[3-(1,3-oxazol-5-yl)phenyl]amino}-6,7,8,9-tetrahydro-5H-pyrimido[4,5-b]indole-6-carboxamide]
17 | 6.45 | COCC1(OC)CCc2[nH]c3ncnc(Nc4ccc5[nH]c(=O)sc5c4)c3c2C1 (racemic) [Example 138]
18 | 7.32 | COCC1(OC)CCc2[nH]c3ncnc(Nc4cc5cn[nH]c5cc4OC)c3c2C1 (racemic) [Example 136]
19 | 5.96 | Nc1ccc2c(c1)N(c1ncnc3[nH]c4c(c13)CCCC4)CC2 [Example 111]
20 | 8.22 | COc1cc2[nH]ncc2cc1Nc1ncnc2[nH]c3c(c12)CCCC3 [Example 112]
21 | 7.89 | CCOC(=O)C1CCc2[nH]c3ncnc(Nc4cc5cn[nH]c5cc4OC)c3c2C1 (racemic) [Example 179, (RS)-Ethyl 4-[(6-methoxy-1H-indazol-5-yl)amino]-6,7,8,9-tetrahydro-5H-pyrimido[4,5-b]indole-6-carboxylate]
22 | 6.73 | COc1ccc(F)cc1Nc1ncnc2[nH]c3c(c12)CC(C(=O)NC1CC1)CC3 (racemic) [Example 197, (RS)—N-Cyclopropyl-4-[(5-fluoro-2-methoxyphenyl)amino]-6,7,8,9-tetrahydro-5H-pyrimido[4,5-b]indole-6-carboxamide]
23 | 5.50 | CCNC(=O)C1CCc2[nH]c3ncnc(N4CCc5ccccc54)c3c2C1 (racemic) [Example 207, (RS)-4-(2,3-Dihydro-1H-indol-1-yl)-N-ethyl-6,7,8,9-tetrahydro-5H-pyrimido[4,5-b]indole-6-carboxamide]
24 | 8.30 | CC(C)Oc1cc2[nH]ncc2cc1Nc1ncnc2[nH]c3c(c12)CC(F)(F)CC3 [Example 232, 6,6-Difluoro-N-[6-(propan-2-yloxy)-1H-indazol-5-yl]-6,7,8,9-tetrahydro-5H-pyrimido[4,5-b]indol-4-amine]
25 | 7.34 | O=C(C1CCc2[nH]c3ncnc(Nc4ccc5[nH]ncc5c4)c3c2C1)N1CC(F)(F)C1 (racemic) [Example 17, (RS)-(3,3-Difluoroazetidin-1-yl)[4-(1H-indazol-5-ylamino)-6,7,8,9-tetrahydro-5H-pyrimido[4,5-b]indol-6-yl]methanone]
26 | 5.83 | Clc1ccc(Nc2ncnc3[nH]c4c(c23)CCCC4)cc1Cl [Example 114]
27 | ≤ 4.70 | COc1ccc(N(C)C)cc1Nc1ncnc2[nH]c3c(c12)CC(C(=O)NCCCS(C)(=O)=O)CC3 (racemic) [Example 158, (RS)-4-{[5-(Dimethylamino)-2-methoxyphenyl]amino}-N-[3-(methylsulfonyl)propyl]-6,7,8,9-tetrahydro-5H-pyrimido[4,5-b]indole-6-carboxamide]
28 | 6.92 | COc1cc(Cl)c(C)cc1Nc1ncnc2[nH]c3c(c12)CC(C(=O)NCCCS(C)(=O)=O)CC3 (racemic) [Example 162, (RS)-4-[(4-Chloro-2-methoxy-5-methylphenyl)amino]-N-[3-(methylsulfonyl)propyl]-6,7,8,9-tetrahydro-5H-pyrimido[4,5-b]indole-6-carboxamide]
29 | 5.94 | COc1cccc(Nc2ncnc3[nH]c4c(c23)CC(C(=O)NCCCS(C)(=O)=O)CC4)c1OC (racemic) [Example 74, (RS)-4-[(2,3-Dimethoxyphenyl)amino]-N-[3-(methylsulfonyl)propyl]-6,7,8,9-tetrahydro-5H-pyrimido[4,5-b]indole-6-carboxamide]
30 | 6.04 | CNC(=O)C1CCc2[nH]c3ncnc(N4CCc5ccccc54)c3c2C1 (racemic) [Example 212, (RS)-4-(2,3-Dihydro-1H-indol-1-yl)-N-methyl-6,7,8,9-tetrahydro-5H-pyrimido[4,5-b]indole-6-carboxamide]
